Experimental data reported in PubChem BioAssay (NCI).
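Each compound was tested at five concentrations against cells in 96-well plates for 48 hours. Here, GI50 denotes the concentration required for 50% inhibition of growth. TGI: concentration producing complete growth inhibition.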

Tests used:
Assay in all cases: NCI anticancer screen, dose series, 48 h
RXF 393 renal = system: RXF 393 renal
SK-MEL-5 melanoma = system: SK-MEL-5 melanoma
CAKI-1 renal = system: CAKI-1 renal
MALME-3M melanoma = system: MALME-3M melanoma
OVCAR-8 ovarian = system: OVCAR-8 ovarian
NCI-H226 lung = system: NCI-H226 lung
RPMI-8226 leukemia = system: RPMI-8226 leukemia
SNB-75 CNS = system: SNB-75 CNS
SF-539 CNS = system: SF-539 CNS
HCT-15 colon = system: HCT-15 colon

Structure (SMILES): O=C(Nc1ccccc1)Nc1ccc2cc3ccc(NC(=O)Nc4ccccc4)cc3nc2c1
- GI50 (RXF 393 renal): 1.49 µM
- TGI (RXF 393 renal): 3.61 µM
- GI50 (SK-MEL-5 melanoma): 1.65 µM
- TGI (SK-MEL-5 melanoma): 3.11 µM
- GI50 (CAKI-1 renal): 2.95 µM
- TGI (CAKI-1 renal): 12.3 µM
- GI50 (MALME-3M melanoma): 1.54 µM
- TGI (MALME-3M melanoma): 3.06 µM
- GI50 (OVCAR-8 ovarian): 1.15 µM
- TGI (OVCAR-8 ovarian): 2.78 µM
- GI50 (NCI-H226 lung): 1.71 µM
- TGI (NCI-H226 lung): 4.15 µM
- GI50 (RPMI-8226 leukemia): 5.42 µM
- TGI (RPMI-8226 leukemia): > 100 µM
- GI50 (SNB-75 CNS): 1.97 µM
- TGI (SNB-75 CNS): 3.73 µM
- GI50 (SF-539 CNS): 1.63 µM
- TGI (SF-539 CNS): 3.01 µM
- GI50 (HCT-15 colon): 37.2 µM
- TGI (HCT-15 colon): > 100 µM

Structure (SMILES): COc1ccc2c(c1)c(-c1nc(-c3c[nH]c4ccncc34)cs1)cn2C
- GI50 (RXF 393 renal): 1.49 µM
- TGI (RXF 393 renal): 2.88 µM
- GI50 (SK-MEL-5 melanoma): 1.65 µM
- TGI (SK-MEL-5 melanoma): 3.02 µM
- GI50 (CAKI-1 renal): 1.64 µM
- TGI (CAKI-1 renal): 3.03 µM
- GI50 (MALME-3M melanoma): 1.74 µM
- TGI (MALME-3M melanoma): 3.28 µM
- GI50 (OVCAR-8 ovarian): 1.99 µM
- TGI (OVCAR-8 ovarian): 3.82 µM
- GI50 (NCI-H226 lung): 1.88 µM
- TGI (NCI-H226 lung): 3.9 µM
- GI50 (RPMI-8226 leukemia): 1.83 µM
- TGI (RPMI-8226 leukemia): 3.83 µM
- GI50 (SNB-75 CNS): 1.52 µM
- TGI (SNB-75 CNS): 2.91 µM
- GI50 (SF-539 CNS): 1.65 µM
- TGI (SF-539 CNS): 3.09 µM
- GI50 (HCT-15 colon): 1.25 µM
- TGI (HCT-15 colon): 2.58 µM

Structure (SMILES): COc1ccc(CN2c3ccccc3Sc3ccccc32)c(C(F)(F)F)c1
- GI50 (RXF 393 renal): 0.38 µM
- TGI (RXF 393 renal): 6.55 µM
- GI50 (SK-MEL-5 melanoma): 0.5 µM
- TGI (SK-MEL-5 melanoma): 15.7 µM
- GI50 (CAKI-1 renal): 1.53 µM
- TGI (CAKI-1 renal): > 100 µM
- GI50 (MALME-3M melanoma): 21 µM
- TGI (MALME-3M melanoma): > 100 µM
- GI50 (OVCAR-8 ovarian): 2.22 µM
- TGI (OVCAR-8 ovarian): > 100 µM
- GI50 (NCI-H226 lung): 10.4 µM
- TGI (NCI-H226 lung): 56.3 µM
- GI50 (RPMI-8226 leukemia): 3 µM
- TGI (RPMI-8226 leukemia): 31.5 µM
- GI50 (SNB-75 CNS): 0.241 µM
- TGI (SNB-75 CNS): > 100 µM
- GI50 (SF-539 CNS): 0.452 µM
- TGI (SF-539 CNS): 3.89 µM
- GI50 (HCT-15 colon): 0.489 µM
- TGI (HCT-15 colon): > 100 µM

Structure (SMILES): CCN(Cc1ccccc1)C1CCN(Cc2cc(Br)ccc2O)CC1
- GI50 (RXF 393 renal): 17.5 µM
- TGI (RXF 393 renal): 94.6 µM
- GI50 (SK-MEL-5 melanoma): 15 µM
- TGI (SK-MEL-5 melanoma): 28.9 µM
- GI50 (CAKI-1 renal): 57.9 µM
- TGI (CAKI-1 renal): > 100 µM
- GI50 (MALME-3M melanoma): 24 µM
- TGI (MALME-3M melanoma): 53 µM
- GI50 (OVCAR-8 ovarian): 76.6 µM
- TGI (OVCAR-8 ovarian): > 100 µM
- GI50 (NCI-H226 lung): > 100 µM
- TGI (NCI-H226 lung): > 100 µM
- GI50 (RPMI-8226 leukemia): 25.5 µM
- TGI (RPMI-8226 leukemia): > 100 µM
- GI50 (SNB-75 CNS): 27.5 µM
- TGI (SNB-75 CNS): > 100 µM
- GI50 (SF-539 CNS): 36.7 µM
- TGI (SF-539 CNS): > 100 µM
- GI50 (HCT-15 colon): 20.1 µM
- TGI (HCT-15 colon): > 100 µM

Structure (SMILES): CN(C)c1ccc2oc(=O)c3ccccc3c2c1
- TGI (RXF 393 renal): 78.9 µM
- TGI (SK-MEL-5 melanoma): > 100 µM
- TGI (CAKI-1 renal): > 100 µM
- TGI (MALME-3M melanoma): > 100 µM
- TGI (OVCAR-8 ovarian): > 100 µM
- TGI (NCI-H226 lung): > 100 µM
- TGI (RPMI-8226 leukemia): > 100 µM
- TGI (SNB-75 CNS): 61.8 µM
- TGI (SF-539 CNS): > 100 µM
- TGI (HCT-15 colon): > 100 µM

Structure (SMILES): CCC(C)[C@H](NC(=O)Nc1cc(C(F)(F)F)cc(C(F)(F)F)c1)C(=O)N[C@@H](Cc1cn(C)cn1)C(=O)OC (stereo not given in full)
- GI50 (RXF 393 renal): 0.523 µM
- TGI (RXF 393 renal): 0.98 µM
- GI50 (SK-MEL-5 melanoma): 0.59 µM
- TGI (SK-MEL-5 melanoma): 1.27 µM
- GI50 (CAKI-1 renal): 2.08 µM
- TGI (CAKI-1 renal): 4 µM
- GI50 (MALME-3M melanoma): 1.41 µM
- TGI (MALME-3M melanoma): 2.01 µM
- GI50 (OVCAR-8 ovarian): 0.634 µM
- TGI (OVCAR-8 ovarian): 1.33 µM
- GI50 (NCI-H226 lung): 0.571 µM
- TGI (NCI-H226 lung): 1.29 µM
- GI50 (RPMI-8226 leukemia): 0.721 µM
- TGI (RPMI-8226 leukemia): 1.86 µM
- GI50 (SNB-75 CNS): 0.924 µM
- TGI (SNB-75 CNS): 1.82 µM
- GI50 (SF-539 CNS): 1.32 µM
- TGI (SF-539 CNS): 1.83 µM
- GI50 (HCT-15 colon): 1.4 µM
- TGI (HCT-15 colon): 2.21 µM

Structure (SMILES): O=C(Nc1cccc(O)c1)c1ccc(NC2=C(Cl)C(=O)N(Cc3ccc(Cl)cc3Cl)C2=O)cc1
- GI50 (RXF 393 renal): 2.31 µM
- TGI (RXF 393 renal): 4.72 µM
- GI50 (SK-MEL-5 melanoma): 4.71 µM
- TGI (SK-MEL-5 melanoma): 9.73 µM
- GI50 (CAKI-1 renal): 1.92 µM
- TGI (CAKI-1 renal): 3.58 µM
- GI50 (MALME-3M melanoma): 2.23 µM
- TGI (MALME-3M melanoma): 5.75 µM
- GI50 (OVCAR-8 ovarian): 1.95 µM
- TGI (OVCAR-8 ovarian): 4.12 µM
- GI50 (NCI-H226 lung): 6.78 µM
- TGI (NCI-H226 lung): 26.7 µM
- GI50 (RPMI-8226 leukemia): 0.749 µM
- TGI (RPMI-8226 leukemia): 2.52 µM
- GI50 (SNB-75 CNS): 2.77 µM
- TGI (SNB-75 CNS): 11.2 µM
- GI50 (SF-539 CNS): 6.32 µM
- TGI (SF-539 CNS): 11.8 µM
- GI50 (HCT-15 colon): 2.51 µM
- TGI (HCT-15 colon): 6.13 µM

Structure (SMILES): COc1ccc2c(c1)nc(C(=O)c1ccco1)c(C(F)(F)F)[n+]2[O-]
- GI50 (RXF 393 renal): 47.5 µM
- TGI (RXF 393 renal): > 100 µM
- GI50 (SK-MEL-5 melanoma): > 100 µM
- TGI (SK-MEL-5 melanoma): > 100 µM
- GI50 (CAKI-1 renal): > 100 µM
- TGI (CAKI-1 renal): > 100 µM
- GI50 (MALME-3M melanoma): > 100 µM
- TGI (MALME-3M melanoma): > 100 µM
- GI50 (OVCAR-8 ovarian): > 100 µM
- TGI (OVCAR-8 ovarian): > 100 µM
- GI50 (NCI-H226 lung): > 100 µM
- TGI (NCI-H226 lung): > 100 µM
- GI50 (RPMI-8226 leukemia): > 100 µM
- TGI (RPMI-8226 leukemia): > 100 µM
- GI50 (SNB-75 CNS): 51.4 µM
- TGI (SNB-75 CNS): > 100 µM
- GI50 (SF-539 CNS): > 100 µM
- TGI (SF-539 CNS): > 100 µM
- GI50 (HCT-15 colon): > 100 µM
- TGI (HCT-15 colon): > 100 µM

Structure (SMILES): c1ccc(C2OC3(CCC[C@H]4C[C@H]43)O[C@H]2c2ccccc2)cc1 (stereo not given in full)
- TGI (RXF 393 renal): 79 µM
- TGI (SK-MEL-5 melanoma): 65.7 µM
- TGI (CAKI-1 renal): 74.7 µM
- TGI (MALME-3M melanoma): 88 µM
- TGI (OVCAR-8 ovarian): > 100 µM
- TGI (NCI-H226 lung): > 100 µM
- TGI (RPMI-8226 leukemia): 96.9 µM
- TGI (SNB-75 CNS): 91.9 µM
- TGI (SF-539 CNS): > 100 µM
- TGI (HCT-15 colon): > 100 µM
